In the case of `N#CN=C(N)N`, the solubility (mole fraction) (in DMF, 283.15 K) is reported as 0.239, the solubility (mole fraction) (in DMF, 288.15 K) is reported as 0.248 and the solubility (mole fraction) (in DMF, 293.15 K) is reported as 0.258. The solubility (mole fraction) (in DMF, 298.15 K) was 0.259, the solubility (mole fraction) (in DMF, 303.15 K) was 0.262 and the solubility (mole fraction) (in DMF, 308.15 K) was 0.265. The solubility (mole fraction) (in DMF, 313.15 K) was 0.274, the solubility (mole fraction) (in DMF, 318.15 K) was 0.276 and the solubility (mole fraction) (in DMF, 323.15 K) was 0.284. The solubility (mole fraction) (in water, 283.15 K) was 0.00474, the solubility (mole fraction) (in water, 288.15 K) was 0.00594 and the solubility (mole fraction) (in water, 293.15 K) was 0.00693. For the same molecule, the solubility (mole fraction) (in water, 298.15 K) was 0.00897, the solubility (mole fraction) (in water, 303.15 K) was 0.0106 and the solubility (mole fraction) (in water, 308.15 K) was 0.0134. For the same molecule, the solubility (mole fraction) (in water, 313.15 K) was 0.0173, the solubility (mole fraction) (in water, 318.15 K) was 0.021 and the solubility (mole fraction) (in water, 323.15 K) was 0.0244.

From BigSolDB 2.1
